Assay results reported in patent US10590128B2, “6,7,8,9-tetrahydro-5H-pyrido[2,3-d]azepine dopamine D3 ligands” (Pfizer Inc., priority 2016, dated 2020).

What was measured:
[1] = molecular target: human dopamine D3 receptor (hD3R) (Homo sapiens, UniProt P35462); experiment: Human D3 receptor binding assay ([^3H]-7-OH-DPAT); conditions: CHO cells expressing hD3R, geometric mean of 2-5 determinations unless marked b (single determination), read-out: hD3 in CHO cells Ki
Experimental: (§1) Human D2 Receptor and Human D3 Receptor Binding Assays:
(§2) These determined ligand and tissue concentrations were utilized in time course studies to determine linearity and equilibrium conditions for binding. […] The hD2R assay buffer contains 50 mM Tris (pH 7.4 @ 37° C.), 100 mM NaCl and 1 mM MgCl2. The hD3R assay buffer consists of 50 mM Tris (pH 7.4 at 37° C.), 120 mM NaCl, 5 mM MgCl2, 5 mM KCl and 2 mM CaCl2. Competitive binding experiments were initiated by the addition of 200 μL of the respective cell homogenate to 96-well plates containing […] test drugs (10 concentrations using ½ log dilutions) and 50 μL of ^3H-radioligand for a final volume of 250 μL. Non-specific binding was determined by radioligand binding in the presence of a saturating concentration of Haldol (10 μM). After the 20 minute incubation at 37° C., assay samples were rapidly filtered through Unifilter-96 GF/B PEI-coated filter plates and rinsed with ice-cold 50 mM Tris buffer (pH 7.4 at 4° C.). […] The IC50 value (concentration at which 50% inhibition of specific binding occurs) was calculated by linear regression of the concentration-response data in ActivityBase. Ki values were then calculated according to the Cheng-Prusoff equation:
(§3) [formula] where [L]=concentration of free radioligand and Kd=dissociation constant of radioligand for D3 receptor or D2 receptor.

[2] = molecular target: human dopamine D2 receptor (hD2R) (Homo sapiens, UniProt P14416); experiment: Human D2 receptor binding assay ([^3H]-Spiperone); conditions: CHO cells expressing hD2R, geometric mean of 2-5 determinations unless marked b (single determination)
Experimental: as §1, §2, §3

Sequence of human dopamine D3 receptor (hD3R) (P35462 whole entry): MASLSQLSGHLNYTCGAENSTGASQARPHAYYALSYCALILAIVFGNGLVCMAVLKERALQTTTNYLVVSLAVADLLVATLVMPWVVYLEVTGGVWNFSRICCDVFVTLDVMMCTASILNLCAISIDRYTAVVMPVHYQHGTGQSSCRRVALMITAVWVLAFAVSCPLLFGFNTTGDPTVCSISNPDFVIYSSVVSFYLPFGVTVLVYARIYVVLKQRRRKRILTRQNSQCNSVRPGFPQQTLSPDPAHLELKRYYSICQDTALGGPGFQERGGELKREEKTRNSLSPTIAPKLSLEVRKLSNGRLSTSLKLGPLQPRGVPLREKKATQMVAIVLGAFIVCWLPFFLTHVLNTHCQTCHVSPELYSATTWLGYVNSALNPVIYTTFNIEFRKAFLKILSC
Sequence of human dopamine D2 receptor (hD2R) (P14416 whole entry): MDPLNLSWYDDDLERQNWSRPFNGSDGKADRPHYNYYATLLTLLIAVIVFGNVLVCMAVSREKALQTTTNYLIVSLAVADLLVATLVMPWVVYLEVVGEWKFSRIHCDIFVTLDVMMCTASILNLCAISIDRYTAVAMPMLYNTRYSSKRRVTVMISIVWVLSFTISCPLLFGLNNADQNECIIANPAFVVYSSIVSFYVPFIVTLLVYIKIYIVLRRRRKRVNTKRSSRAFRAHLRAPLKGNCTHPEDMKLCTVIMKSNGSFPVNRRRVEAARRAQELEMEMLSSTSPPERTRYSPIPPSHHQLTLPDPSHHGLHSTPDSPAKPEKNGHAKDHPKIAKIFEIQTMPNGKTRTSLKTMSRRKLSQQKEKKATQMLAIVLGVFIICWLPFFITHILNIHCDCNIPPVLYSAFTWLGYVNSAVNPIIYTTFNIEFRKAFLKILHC

SMILES	Ki [1] [nM]	Ki [2] [nM]
CCN1CCc2cc(NS(=O)(=O)c3ccc(C4CCCC4)nc3)c(OC)nc2CC1 [Example 102, 6-cyclopentyl-N-(7-ethyl-2-methoxy-6,7,8,9-tetrahydro-5H-pyrido[2,3-d]azepin-3-yl)pyridine-3-sulfonamide]	2.81	325
CCN1CCc2cc(NS(=O)(=O)c3ccc([C@H]4C[C@@H](OC)C4)cc3)c(OC)nc2CC1 [Example 72, N-(7-ethyl-2-methoxy-6,7,8,9-tetrahydro-5H-pyrido[2,3-d]azepin-3-yl)-4-(cis-3-methoxycyclobutyl)benzenesulfonamide]	2.65	420
COc1nc2c(cc1NS(=O)(=O)c1ccc(C3CCOC(C)(C)C3)cc1)CCN(C)CC2 (single isomer, unassigned) [Example 86]	35.2	1390
COc1nc2c(cc1NS(=O)(=O)c1ccc([C@H](C)OC)cc1)CCN(C)CC2 [Example 89, 4-[(1S)-1-methoxyethyl]-N-(2-methoxy-7-methyl-6,7,8,9-tetrahydro-5H-pyrido[2,3-d]azepin-3-yl)benzenesulfonamide]	1.67	76
CCO[C@H]1C[C@@H](c2ccc(S(=O)(=O)Nc3cc4c(nc3OC)CCN(CC)CC4)cc2)C1 [Example 120, 4-(cis-3-ethoxycyclobutyl)-N-(7-ethyl-2-methoxy-6,7,8,9-tetrahydro-5H-pyrido[2,3-d]azepin-3-yl)benzenesulfonamide]	1.28	54
COc1nc2c(cc1NS(=O)(=O)c1cnc(C3CCCC3)nc1)CCN(C)CC2 [Example 123, 2-cyclopentyl-N-(2-methoxy-7-methyl-6,7,8,9-tetrahydro-5H-pyrido[2,3-d]azepin-3-yl)pyrimidine-5-sulfonamide]	12.9	164
CCO[C@H]1C[C@@](F)(c2ccc(S(=O)(=O)Nc3cc4c(nc3OC)CCN(C)CC4)cc2)C1 [Example 132, 4-(trans-3-ethoxy-1-fluorocyclobutyl)-N-(2-methoxy-7-methyl-6,7,8,9-tetrahydro-5H-pyrido[2,3-d]azepin-3-yl)benzenesulfonamide]	2.23	367
COc1nc2c(cc1NS(=O)(=O)c1ccc(C3CC(F)(F)CCO3)cc1)CCN(C)CC2 (single isomer, unassigned) [Example 41]	2.31	177
COc1nc2c(cc1NS(=O)(=O)c1ccc(C3CCCCC3)cc1)CCN(C)CC2 [Example 45, 4-cyclohexyl-N-(2-methoxy-7-methyl-6,7,8,9-tetrahydro-5H-pyrido[2,3-d]azepin-3-yl)benzenesulfonamide]	0.32	3.2
COc1nc2c(cc1NS(=O)(=O)c1ccc([C@@H]3CCCO3)cc1)CCN(C)CC2 [Example 98, N-(2-methoxy-7-methyl-6,7,8,9-tetrahydro-5H-pyrido[2,3-d]azepin-3-yl)-4-[(2S)-tetrahydrofuran-2-yl]benzenesulfonamide]	4.01	488
COc1nc2c(cc1NS(=O)(=O)c1ccc(C3CC(F)(F)CCO3)cc1)CCN(C)CC2 (racemic) [Example 40, 4-(4,4-difluorotetrahydro-2H-pyran-2-yl)-N-(2-methoxy-7-methyl-6,7,8,9-tetrahydro-5H-pyrido[2,3-d]azepin-3-yl)benzenesulfonamide]	2.59	134
COc1nc2c(cc1NS(=O)(=O)c1ccc(C3CCCC3)nc1)CCN(C)CC2 [Example 16, 6-cyclopentyl-N-(2-methoxy-7-methyl-6,7,8,9-tetrahydro-5H-pyrido[2,3-d]azepin-3-yl)pyridine-3-sulfonamide]	2.41	122
COc1nc2c(cc1NS(=O)(=O)c1ccc(OC3CCCC3)nc1)CCN(C)CC2 [Example 15, 6-(cyclopentyloxy)-N-(2-methoxy-7-methyl-6,7,8,9-tetrahydro-5H-pyrido[2,3-d]azepin-3-yl)pyridine-3-sulfonamide]	0.714	13.3
COc1nc2c(cc1NS(=O)(=O)c1cnc(OC3CCCC3)c(C)c1)CCN(C)CC2 [Example 124, 6-(cyclopentyloxy)-N-(2-methoxy-7-methyl-6,7,8,9-tetrahydro-5H-pyrido[2,3-d]azepin-3-yl)-5-methylpyridine-3-sulfonamide]	0.79	3.89
CCN1CCc2cc(NS(=O)(=O)c3ccc4c(c3)CCC(C)(C)O4)c(OC)nc2CC1 [Example 64, N-(7-ethyl-2-methoxy-6,7,8,9-tetrahydro-5H-pyrido[2,3-d]azepin-3-yl)-2,2-dimethyl-3,4-dihydro-2H-chromene-6-sulfonamide]	0.48	21.2
COc1nc2c(cc1NS(=O)(=O)c1ccc([C@]3(F)C[C@H](OC)C3)cc1)CCN(C)CC2 [Example 10, 4-(trans-1-Fluoro-3-methoxycyclobutyl)-N-(2-methoxy-7-methyl-6,7,8,9-tetrahydro-5H-pyrido[2,3-d]azepin-3-yl)benzenesulfonamide]	1.16	99
CCN1CCc2cc(NS(=O)(=O)c3ccc(C)cc3C)c(OC)nc2CC1 [Example 65, N-(7-ethyl-2-methoxy-6,7,8,9-tetrahydro-5H-pyrido[2,3-d]azepin-3-yl)-2,4-dimethylbenzenesulfonamide]	1.54	276
COc1nc2c(cc1NS(=O)(=O)c1ccc(C3(C)CCOCC3)cc1)CCN(C)CC2 [Example 79, N-(2-methoxy-7-methyl-6,7,8,9-tetrahydro-5H-pyrido[2,3-d]azepin-3-yl)-4-(4-methyltetrahydro-2H-pyran-4-yl)benzenesulfonamide]	3.67	403
COc1nc2c(cc1NS(=O)(=O)c1cnc(C3CCCCC3)nc1)CCN(C)CC2 [Example 127, 2-cyclohexyl-N-(2-methoxy-7-methyl-6,7,8,9-tetrahydro-5H-pyrido[2,3-d]azepin-3-yl)pyrimidine-5-sulfonamide]	32.2	457
COc1nc2c(cc1NS(=O)(=O)c1cnc(OC3CCC3)c(C)c1)CCN(C)CC2 [Example 126, 6-(cyclobutyloxy)-N-(2-methoxy-7-methyl-6,7,8,9-tetrahydro-5H-pyrido[2,3-d]azepin-3-yl)-5-methylpyridine-3-sulfonamide]	1.85	10.9
COc1nc2c(cc1NS(=O)(=O)c1ccc([C@@H]3CCCCO3)c(F)c1)CCN(C)CC2 [Example 111, 3-fluoro-N-(2-methoxy-7-methyl-6,7,8,9-tetrahydro-5H-pyrido[2,3-d]azepin-3-yl)-4-[(2S)-tetrahydro-2H-pyran-2-yl]benzenesulfonamide]	2.3	100
CCOc1ccc(S(=O)(=O)Nc2cc3c(nc2OC)CCN(CCOC)CC3)cc1 [Example 29, 4-ethoxy-N-[2-methoxy-7-(2-methoxyethyl)-6,7,8,9-tetrahydro-5H-pyrido[2,3-d]azepin-3-yl]benzenesulfonamide]	11.1	1070
CCN1CCc2cc(NS(=O)(=O)c3ccc(C4(F)CCCC4)nc3)c(OC)nc2CC1 [Example 101, N-(7-ethyl-2-methoxy-6,7,8,9-tetrahydro-5H-pyrido[2,3-d]azepin-3-yl)-6-(1-fluorocyclopentyl)pyridine-3-sulfonamide]	6.26	677
CCCN1CCc2cc(NS(=O)(=O)c3ccc(OCC)cc3)c(OC)nc2CC1 [Example 50, 4-ethoxy-N-(2-methoxy-7-propyl-6,7,8,9-tetrahydro-5H-pyrido[2,3-d]azepin-3-yl)benzenesulfonamide]	3.2	337
CCN1CCc2cc(NS(=O)(=O)c3ccc(C4CCCCO4)cc3)c(OC)nc2CC1 (single isomer, unassigned) [Example 73]	4.41	1040
COc1nc2c(cc1NS(=O)(=O)c1ccc(C)cc1)CCN(C)CC2 [Example 5, N-(2-Methoxy-7-methyl-6,7,8,9-tetrahydro-5H-pyrido[2,3-d]azepin-3-yl)-4-methylbenzenesulfonamide]	3.72	333
COc1nc2c(cc1NS(=O)(=O)c1ccc(C3CCOC(C)C3)cc1)CCN(C)CC2 (single isomer, unassigned) [Example 85]	3.24	303
CCN1CCc2cc(NS(=O)(=O)c3ccc4c(c3)CCCO4)c(OC(C)C)nc2CC1 [Example 66, N-[7-ethyl-2-(propan-2-yloxy)-6,7,8,9-tetrahydro-5H-pyrido[2,3-d]azepin-3-yl]-3,4-dihydro-2H-chromene-6-sulfonamide]	8.78	1460
COc1nc2c(cc1NS(=O)(=O)c1ccc([C@]3(F)C[C@H](OCCF)C3)cc1)CCN(C)CC2 [Example 133, 4-[trans-1-fluoro-3-(2-fluoroethoxy)cyclobutyl]-N-(2-methoxy-7-methyl-6,7,8,9-tetrahydro-5H-pyrido[2,3-d]azepin-3-yl)benzenesulfonamide]	2.47	428
